Biological target: wild-type (WT) FKBP12 (in iRC9) (Homo sapiens, UniProt P62942)
Test: Cross-activation of iRC9 apoptosis by high rimiducid in transfected HEK293 cells
Assay type: cell-based

wild-type (WT) FKBP12 (in iRC9), sequence (P62942 2-108): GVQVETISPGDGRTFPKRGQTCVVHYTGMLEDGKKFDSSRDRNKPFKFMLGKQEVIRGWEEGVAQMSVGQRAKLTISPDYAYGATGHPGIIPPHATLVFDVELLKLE

Cross-activation of iRC9 apoptosis by high rimiducid in transfected HEK293 cells: > 100 nM
Structure (SMILES): CC[C@H](C(=O)N1CCCC[C@H]1C(=O)O[C@H](CCc1ccc(OC)c(OC)c1)c1cccc(OCC(=O)NCCNC(=O)COc2cccc([C@@H](CCc3ccc(OC)c(OC)c3)OC(=O)[C@@H]3CCCCN3C(=O)[C@@H](CC)c3cc(OC)c(OC)c(OC)c3)c2)c1)c1cc(OC)c(OC)c(OC)c1 [Rim, rimiducid]

From publication PMC6357218 (Molecular Therapy Oncolytics, 2018)
